What was measured:
benzodiazepine receptor = benzodiazepine receptor binding and agonist/antagonist profile (3H-flunitrazepam displacement, rat brain membranes)
Method: The benzodiazepine receptor binding properties indicative of the nervous system regulatory activity of said new compounds are determined in the receptor binding assay in vitro, e.g. similarly to that in Nature 266, 732 (1977) or Proc. Nat. Acad. Sci. USA 74, 3805 (1977). When tritiated flunitrazepam is used, the interaction of other drugs with said receptor can be readily assessed thus: Synaptosnal membranes from rat fore-brain are incubated at 0°-5° for 30 minutes with 0.5 nM tritiated flunitrazepam and various concentrations of the test substance in a buffer medium maintained at pH 7.5. […] The membranes, containing the receptors with various amounts of tritiated flunitrazepam, are filtered onto glass fiber filters, which are then analyzed in a liquid scintillation counter. […]
The pharmacological agonist and/or antagonist/inverse agonist profile of the benzodiazepine receptor modulators of the invention can also be determined by measuring their effect in a rat brain membrane preparation on the displacement of ^3 H-flunitrazepam in the presence or absence of gamma-aminobutric acid (GABA), on the enhancement of ^3 H-muscimol binding by etazolate, or on the binding of ^35 S-butyl bicyclophosphorothionate (TBPS), e.g. as described in J. Pharmacol. Exp. Ther. 231, 572 (1984).

male Wistar rats = experiment: Cook-Davidson conflict procedure (anxiolytic effects); format: in vivo, rat; conditions: e.g. as determined in the Cook-Davidson model
Description: Anxiolytic effects are observed, for example, by measuring the antagonism of pentylenetetrazol discriminative stimuli in the rat and according to the Cook-Davidson conflict procedure, using male Wistar rats, e.g. as described in Drug Development Research 6: 313-325 (1985).

rat = experiment: discrimination test in the rat; format: in vivo; conditions: test compounds administered orally
Description: Illustrative thereof is the compound of example 1.
The diazepam discrimination test, can also be used to determine benzodiazepine antagonist properties.

O=c1c2c[nH]c3c(c-2nn1-c1ccc(Cl)cc1)CCCCCC3 [Example 2b, 2-(4-chlorophenyl)-2,3,6,7,8,9,10,11-octahydrocycloocta[b]pyrazolo[3,4-d]-pyridin-3(5H)-one]
pharmacological profile at the benzodiazepine receptor (benzodiazepine receptor): benzodiazepine agonist profile

COc1ccc(-n2nc3c4c([nH]cc-3c2=O)CCCCCC4)cc1 [Example 1, 2-(4-methoxyphenyl)-2,3,6,7,8,9,10,11-octahydrocycloocta[b]pyrazolo[3,4-d]pyridin-3(5H)-one]
pharmacological profile at the benzodiazepine receptor (benzodiazepine receptor): benzodiazepine agonist profile
anxiolytic properties (male Wistar rats): demonstrate anxiolytic properties
generalization to the discrimination test (rat): do not generalize to the discrimination test

Source: US4826854A, “Certain cycloalka-(b)-pyrazolo(3,4-d)-pyridin-3-one derivatives” (Ciba-Geigy Corporation, priority 1987, dated 1989)
